PubChem BioAssay (NCI)
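Results reflect a 48-hour exposure of cells in 96-well plates to compound at five concentrations. The concentration for full growth arrest is given as TGI.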

Test system: PC-3 prostate
Assay: DTP human tumour cell line panel, 48 h

SMILES	TGI
c1csc(-c2cc(-c3cccs3)c(-c3ccsc3)s2)c1	> 100 µM
CN1C2CCC1CC(CCNC(c1ccccc1)c1ccccc1)C2 (configuration not stated)	> 100 µM
CCOP(=O)(O)C1C(CO)OC(n2ccc(=O)[nH]c2=O)C1O (configuration not stated)	> 100 µM
O=C1NCCCNCCCNCCCNC(=O)c2cccc1n2	> 100 µM
O=C1O/C(=C(/Br)c2ccc(Cl)c(Cl)c2)c2ccccc21	> 10 µM
CSC1=N/C(=C\c2ccccc2)C(=O)N1CN1CCCCC1	> 100 µM

Test system: SK-MEL-5 melanoma
Assay: DTP human tumour cell line panel, 48 h

SMILES	TGI
Cc1ccc(N=Nc2c(C)c(C#N)c(=S)n(C3OC(CO)C(O)C(O)C3O)c2C)cc1 (configuration not stated)	35 µM
C=C(CC[C@@H](C)[C@H]1CC[C@@]2(C)C3=C(CC[C@]12C)[C@@]1(C)CC[C@H](O)[C@@H](C)C1CC3)C(C)C (some centres not stated)	2.55 µM
C=C1CCC23CC(CC[C@@H]2[C@@]12C[C@@H](c1ccoc1)OC2=O)OC3=O (some centres not stated)	> 100 µM
CC(=O)OCCOCn1cnc2c(Cl)nc(Cl)nc21	33 µM
CNC(=O)N1CN(c2ccccc2)C2(CCN(CCCC3(c4ccc(F)cc4)OCCO3)CC2)C1=O	> 100 µM
O=C(Cc1ccccc1)N/N=C/c1ccccc1O	49.4 µM
COc1ccc(N2C(=O)c3cc(C)cnc3S2(=O)=O)cc1	> 100 µM
CC(C)=CC(=O)C[C@H]1C(=O)O[C@@H]2C[C@H]3C(C)=CC(=O)[C@@H](O)[C@]3(C)[C@H]3[C@@]4(O)OC[C@]32[C@@H]1[C@@H](C)[C@H]4O	0.0612 µM
CC1(C)CC(=O)C(/C=N/c2nc(-c3ccccc3)cs2)=C(O)C1	> 100 µM
CCN(CC)CC(=O)O[C@]1(CC)C(=O)OCc2c1cc1n(c2=O)Cc2cc3ccccc3nc2-1	0.171 µM
Cn1c(=O)c2[nH]c(CCCCC(=O)O)nc2n(C)c1=O	> 100 µM
N#Cc1nc(C2=C(Cl)c3ccccc3OC2)[nH]c1C#N	51.1 µM
C/C=C(/C)C(=O)O[C@H]1C[C@@H]2[C@@H](O)c3occ(C)c3C[C@]2(C)[C@@H](C)C1	22.6 µM
Cc1ccc(-c2c3nc(c(-c4ccc(C)cc4)c4ccc([nH]4)c(-c4ccc(OCC5COC(C)(C)O5)cc4)c4nc(c(-c5ccc(C)cc5)c5ccc2[nH]5)C=C4)C=C3)cc1 (configuration not stated)	> 31.6 µM
CC(=NNC(=S)Nc1ccc(C)cc1)c1cccc(C(C)=NNC(=S)Nc2ccc(C)cc2)n1	38.7 µM
N#Cc1c(-c2ccccc2)cc(Nc2cccc(C(F)(F)F)c2)n2c1nc1ccccc12	1.78 µM
COc1ccc(O)c(/C(C)=N/NC(=S)N(C)C)c1	> 100 µM
c1ccc(CSP234N5CCN2CCN3CCN4CC5)c(CSP234N5CCN2CCN3CCN4CC5)c1	> 100 µM
c1csc(-c2cc(-c3cccs3)c(-c3ccsc3)s2)c1	> 100 µM
Cc1ccc(S(=O)(=O)OC(c2ccc(Cl)cc2Cl)C2OC(=O)c3ccccc32)cc1 (configuration not stated)	> 100 µM
CN1C2CCC1CC(CCNC(c1ccccc1)c1ccccc1)C2 (configuration not stated)	25.5 µM
CCOP(=O)(O)C1C(CO)OC(n2ccc(=O)[nH]c2=O)C1O (configuration not stated)	> 100 µM
O=C1NCCCNCCCNCCCNC(=O)c2cccc1n2	> 100 µM
O=C1O/C(=C(/Br)c2ccc(Cl)c(Cl)c2)c2ccccc21	> 10 µM
CSC1=N/C(=C\c2ccccc2)C(=O)N1CN1CCCCC1	> 100 µM
CCOC(=O)C(Cc1cn(S(=O)(=O)c2ccccc2)c2ccccc12)(NC(C)=O)C(=O)OCC	33.7 µM

Test system: SNB-19 CNS
Assay: DTP human tumour cell line panel, 48 h

SMILES	TGI
Cc1ccc(N=Nc2c(C)c(C#N)c(=S)n(C3OC(CO)C(O)C(O)C3O)c2C)cc1 (configuration not stated)	> 100 µM
C=C(CC[C@@H](C)[C@H]1CC[C@@]2(C)C3=C(CC[C@]12C)[C@@]1(C)CC[C@H](O)[C@@H](C)C1CC3)C(C)C (some centres not stated)	4.45 µM
C=C1CCC23CC(CC[C@@H]2[C@@]12C[C@@H](c1ccoc1)OC2=O)OC3=O (some centres not stated)	> 100 µM
CC(=O)OCCOCn1cnc2c(Cl)nc(Cl)nc21	> 100 µM
CNC(=O)N1CN(c2ccccc2)C2(CCN(CCCC3(c4ccc(F)cc4)OCCO3)CC2)C1=O	> 100 µM
O=C(Cc1ccccc1)N/N=C/c1ccccc1O	> 100 µM
COc1ccc(N2C(=O)c3cc(C)cnc3S2(=O)=O)cc1	> 100 µM
CC1(C)CC(=O)C(/C=N/c2nc(-c3ccccc3)cs2)=C(O)C1	> 100 µM
CCN(CC)CC(=O)O[C@]1(CC)C(=O)OCc2c1cc1n(c2=O)Cc2cc3ccccc3nc2-1	11.3 µM
Cn1c(=O)c2[nH]c(CCCCC(=O)O)nc2n(C)c1=O	> 100 µM
N#Cc1nc(C2=C(Cl)c3ccccc3OC2)[nH]c1C#N	> 100 µM
COc1ccc(-c2cc(=O)c3ccccc3[nH]2)c(OC)c1	> 100 µM
C/C=C(/C)C(=O)O[C@H]1C[C@@H]2[C@@H](O)c3occ(C)c3C[C@]2(C)[C@@H](C)C1	31.5 µM
Cc1ccc(-c2c3nc(c(-c4ccc(C)cc4)c4ccc([nH]4)c(-c4ccc(OCC5COC(C)(C)O5)cc4)c4nc(c(-c5ccc(C)cc5)c5ccc2[nH]5)C=C4)C=C3)cc1 (configuration not stated)	> 31.6 µM
CC(=NNC(=S)Nc1ccc(C)cc1)c1cccc(C(C)=NNC(=S)Nc2ccc(C)cc2)n1	> 100 µM
COc1ccc(O)c(/C(C)=N/NC(=S)N(C)C)c1	> 100 µM
c1ccc(CSP234N5CCN2CCN3CCN4CC5)c(CSP234N5CCN2CCN3CCN4CC5)c1	> 100 µM
c1csc(-c2cc(-c3cccs3)c(-c3ccsc3)s2)c1	> 100 µM
Cc1ccc(S(=O)(=O)OC(c2ccc(Cl)cc2Cl)C2OC(=O)c3ccccc32)cc1 (configuration not stated)	> 100 µM
CN1C2CCC1CC(CCNC(c1ccccc1)c1ccccc1)C2 (configuration not stated)	> 100 µM
CCOP(=O)(O)C1C(CO)OC(n2ccc(=O)[nH]c2=O)C1O (configuration not stated)	> 100 µM
O=C1NCCCNCCCNCCCNC(=O)c2cccc1n2	> 100 µM
O=C1O/C(=C(/Br)c2ccc(Cl)c(Cl)c2)c2ccccc21	> 10 µM
CSC1=N/C(=C\c2ccccc2)C(=O)N1CN1CCCCC1	> 100 µM
CCOC(=O)C(Cc1cn(S(=O)(=O)c2ccccc2)c2ccccc12)(NC(C)=O)C(=O)OCC	> 100 µM
